# Assay results: patent US20120058133A1, “INHIBITION OF TRNA SYNTHETASES AND THERAPEUTIC APPLICATIONS THEREOF” (President and Fellows of Harvard College, priority 2009, published 2012)
# Legend:
# [1] = tested on: amino acid starvation response pathway; assay: Amino acid starvation response (eIF2α phosphorylation, ATF4, AAR genes) in T cells; type: cell-based, mouse; settings: for eIF2α phosphorylation and ATF4 expression: 1 μg/ml tunicamycin
# Experimental: FIG. 4C is a graph depicting results of quantitative real-time PCR performed on cDNA generated from unstimulated naïve T cells or those activated for 4 hours in the presence of 10 nM MAZ1310 or 10 nM HF. Asns, Gpt2 or eIF4Ebp1 mRNA expression was normalized to Hprt levels and data are presented as mean values ±SD in duplicate samples.
# FIG. 4D depicts western blot analysis of purified CD4^+ CD25^− T cells either unstimulated, or TCR-activated without exogenous cytokines in the presence of DMSO, 40 nM MAZ1310 or titrating concentrations of HF (1.25-40 nM). Whole cell lysates were prepared 4 hours-post TCR activation and immunoblotting was performed with the indicated antibodies. ATF4 protein is indicated by arrowhead. NS—non-specific band.
# FIG. 4E depicts western blot analysis of purified CD4^+ CD25^− T cells activated through the TCR for the indicated times without exogenous cytokines in the presence of either 10 nM MAZ1310 or 10 nM HF as indicated. Whole cell lysates were prepared during the timecourse and immunoblotting was performed.
# FIG. 4F depicts western blot analysis of CD4^+ CD25^− T cells either left unstimulated or were TCR-activated in the absence or presence of the indicated polarizing cytokine conditions and 10 nM MAZ1310 or 10 nM HF as indicated. Whole cell lysates were generated 4 hours after activation and immunoblotting was performed. Microarray data were generated from three independent experiments and all other data are representative of at least two similar experiments.
# (§1) FIG. 5. […] FIG. 5A depicts western blot and Xbp1 splicing analysis of CD4^+ CD25^− T cells left unstimulated, or activated through the TCR for 4 hours in complete medium (complete—200 μM Cys/100 μM Met), medium lacking Cys/Met (−Cys/Met) or complete medium containing 1 μg/ml tunicamycin, 10 nM HF or 10 nM MAZ1310. Western blotting was performed on whole cell extracts with the indicated antibodies. Xbp-1 splicing assay was performed on cDNA synthesized from T cell cultures.
# T cells were activated as described above, collected at the indicated times and pellets were flash-frozen in liquid nitrogen. Total RNA was obtained by RNeasy (Quiagen—Valencia, Calif.) column purification per manufacturers instructions. RORγt expression was determined after reverse transcription using the message sensor kit (Ambion—Austin, Tex.) per the manufacturer's instructions and taqman primers and probe as described elsewhere (Ivanov et al., Cell 126:1121, 2006). Sybrgreen quantitative real-time PCR was performed on T cell RNA samples following reverse transcription via SuperScript II first-strand cDNA synthesis kit (Invitrogen—Carlsbad, Calif.). All PCR data was collected on an iCycler thermal cycler (Biorad—Hercules, Calif.). Primer sequences used for detecting stress response genes are listed below.
# Whole cell lysates were generated from T cells activated for the indicated times. For STAT3 and Smad2/3 western blots cells were harvested, washed in PBS and lysed in 50 mM Tris, pH 7.4, 0.1% SDS, 1% Triton-X 100, 140 mM NaCl, 1 mM EDTA, 1 mM EGTA supplemented with protease inhibitors tablets (Roche—Germany), 1 mM NaF and 1 mM Na3VO4. For eIF2α and ATF4 western blots, cells were harvested as above and lysed in 50 mM Tris, pH 7.4, 2% SDS, 20% glycerol and 2 mM EDTA supplemented with protease and phosphatase inhibitors as above. All lysates were cleared via centrifugation and 15-30 μg of protein was resolved by SDS-PAGE. Protein was transferred to nitrocellulose membranes, blocked and blotted using specific antibodies. Antibodies used for western blot analysis were anti-phospho-Smad2, anti-STAT3 (pY705), anti-STAT3, anti-eIF2α^ps51, anti-eIF2α (all from cell signaling technology—Danvers, Mass.). Anti-ATF4/CREB2 and anti-β-actin were purchased from Santa Cruz Biotechnology (Santa Cruz, Calif.). HRP-conjugated secondary antibodies were all purchased from Sigma, with the exception of HRP-conjugated anti-armenian hamster antibody (Jackson Immunoresearch—West Grove, Pa.). […]
# Xbp-1 splicing = assay: ER stress / unfolded protein response (Xbp-1 splicing) in T cells; type: cell-based, mouse; settings: for Xbp-1 splicing: TCR activation 4 hours, 1 μg/ml tunicamycin, 10 nM HF
# Experimental: as §1
# [2] = TCR activation 4 hours, 10 nM HF
Compound,"eIF2α phosphorylation and ATF4 expression [1, 2]",Xbp-1 splicing (Xbp-1 splicing),time to maximum eIF2α phosphorylation ([1]; 10 nM HF) [h],time until which ATF4 protein continued to accumulate ([1]; 10 nM HF) [h],"ATF4 expression in differentiated and naïve T cells ([1]; 10 nM HF, 4 hours)","eIF2α phosphorylation in resting naïve T cells and ThN, Th1, Th2, iTreg, Th17 conditions ([1]; 10 nM HF, 4 hours)","AAR-associated genes (Asns, Gpt2, eIF4Ebp1) by qPCR ([1]; 10 nM HF, within 4 hours of T cell activation)","effect of added proline on HF-induced eIF2alpha phosphorylation ([1]; 10 nM halofuginone, 1 mM amino acid)","eif2alpha Ser51 phosphorylation in wild type and GCN2−/− T cells ([1]; 10 nM, TCR activation 4 hours)",concentration at which eIF2α phosphorylation plateaued ([1]; 4 hours post TCR activation) [nM],concentration giving detectable eIF2α phosphorylation ([1]; 4 hours post TCR activation) [nM],concentration with highest ATF4 expression levels ([1]; 4 hours post TCR activation) [nM],concentrations at which ATF4 expression was reduced ([1]; 4 hours post TCR activation) [nM],expression of hallmark ER stress response genes (Xbp-1 splicing)
tunicamycin,induced eIF2α phosphorylation and ATF4 expression,together with Xbp-1 splicing,–,–,–,–,–,–,–,–,–,–,–,–
"O=C(CC1NCCCC1O)Cn1cnc2cc(Br)c(Cl)cc2c1=O (racemic) [HF, halofuginone]",inducing eIF2α phosphorylation,without promoting Xbp-1 splicing,≤ 2,4,"induced ATF4 expression in all differentiated T cells, but not in naïve T cells",induced eIF2α phosphorylation,induced,blocked by added proline,leads to phosphorylation of Ser51 of eif2alpha only in wild type cells and not in GCN2^−/− cells,5 to 10,2.5,5 to 10,20 to 40,did not induce
